From patent US20090298834A1, “4-(AMINOMETHYL)CYCLOHEXANAMINE DERIVATIVES AS CALCIUM CHANNEL BLOCKERS” (priority 2008, published 2009)

Columns and labels:
[1] = target: T1, human α1G T-type channels (Homo sapiens, UniProt O43497); assay: T-type calcium channel block, whole cell patch clamp (α1G); assay type: cell-based; conditions: HEK cells stably expressing human α1G; mainly non-inactivated protocol; values above 10 μM represented as 10 μM, values below 0.30 μM represented as 0.30 μM
T1 construct: expressed in transfected cells; host or cells: HEK 293
T1 sequence (O43497 whole entry): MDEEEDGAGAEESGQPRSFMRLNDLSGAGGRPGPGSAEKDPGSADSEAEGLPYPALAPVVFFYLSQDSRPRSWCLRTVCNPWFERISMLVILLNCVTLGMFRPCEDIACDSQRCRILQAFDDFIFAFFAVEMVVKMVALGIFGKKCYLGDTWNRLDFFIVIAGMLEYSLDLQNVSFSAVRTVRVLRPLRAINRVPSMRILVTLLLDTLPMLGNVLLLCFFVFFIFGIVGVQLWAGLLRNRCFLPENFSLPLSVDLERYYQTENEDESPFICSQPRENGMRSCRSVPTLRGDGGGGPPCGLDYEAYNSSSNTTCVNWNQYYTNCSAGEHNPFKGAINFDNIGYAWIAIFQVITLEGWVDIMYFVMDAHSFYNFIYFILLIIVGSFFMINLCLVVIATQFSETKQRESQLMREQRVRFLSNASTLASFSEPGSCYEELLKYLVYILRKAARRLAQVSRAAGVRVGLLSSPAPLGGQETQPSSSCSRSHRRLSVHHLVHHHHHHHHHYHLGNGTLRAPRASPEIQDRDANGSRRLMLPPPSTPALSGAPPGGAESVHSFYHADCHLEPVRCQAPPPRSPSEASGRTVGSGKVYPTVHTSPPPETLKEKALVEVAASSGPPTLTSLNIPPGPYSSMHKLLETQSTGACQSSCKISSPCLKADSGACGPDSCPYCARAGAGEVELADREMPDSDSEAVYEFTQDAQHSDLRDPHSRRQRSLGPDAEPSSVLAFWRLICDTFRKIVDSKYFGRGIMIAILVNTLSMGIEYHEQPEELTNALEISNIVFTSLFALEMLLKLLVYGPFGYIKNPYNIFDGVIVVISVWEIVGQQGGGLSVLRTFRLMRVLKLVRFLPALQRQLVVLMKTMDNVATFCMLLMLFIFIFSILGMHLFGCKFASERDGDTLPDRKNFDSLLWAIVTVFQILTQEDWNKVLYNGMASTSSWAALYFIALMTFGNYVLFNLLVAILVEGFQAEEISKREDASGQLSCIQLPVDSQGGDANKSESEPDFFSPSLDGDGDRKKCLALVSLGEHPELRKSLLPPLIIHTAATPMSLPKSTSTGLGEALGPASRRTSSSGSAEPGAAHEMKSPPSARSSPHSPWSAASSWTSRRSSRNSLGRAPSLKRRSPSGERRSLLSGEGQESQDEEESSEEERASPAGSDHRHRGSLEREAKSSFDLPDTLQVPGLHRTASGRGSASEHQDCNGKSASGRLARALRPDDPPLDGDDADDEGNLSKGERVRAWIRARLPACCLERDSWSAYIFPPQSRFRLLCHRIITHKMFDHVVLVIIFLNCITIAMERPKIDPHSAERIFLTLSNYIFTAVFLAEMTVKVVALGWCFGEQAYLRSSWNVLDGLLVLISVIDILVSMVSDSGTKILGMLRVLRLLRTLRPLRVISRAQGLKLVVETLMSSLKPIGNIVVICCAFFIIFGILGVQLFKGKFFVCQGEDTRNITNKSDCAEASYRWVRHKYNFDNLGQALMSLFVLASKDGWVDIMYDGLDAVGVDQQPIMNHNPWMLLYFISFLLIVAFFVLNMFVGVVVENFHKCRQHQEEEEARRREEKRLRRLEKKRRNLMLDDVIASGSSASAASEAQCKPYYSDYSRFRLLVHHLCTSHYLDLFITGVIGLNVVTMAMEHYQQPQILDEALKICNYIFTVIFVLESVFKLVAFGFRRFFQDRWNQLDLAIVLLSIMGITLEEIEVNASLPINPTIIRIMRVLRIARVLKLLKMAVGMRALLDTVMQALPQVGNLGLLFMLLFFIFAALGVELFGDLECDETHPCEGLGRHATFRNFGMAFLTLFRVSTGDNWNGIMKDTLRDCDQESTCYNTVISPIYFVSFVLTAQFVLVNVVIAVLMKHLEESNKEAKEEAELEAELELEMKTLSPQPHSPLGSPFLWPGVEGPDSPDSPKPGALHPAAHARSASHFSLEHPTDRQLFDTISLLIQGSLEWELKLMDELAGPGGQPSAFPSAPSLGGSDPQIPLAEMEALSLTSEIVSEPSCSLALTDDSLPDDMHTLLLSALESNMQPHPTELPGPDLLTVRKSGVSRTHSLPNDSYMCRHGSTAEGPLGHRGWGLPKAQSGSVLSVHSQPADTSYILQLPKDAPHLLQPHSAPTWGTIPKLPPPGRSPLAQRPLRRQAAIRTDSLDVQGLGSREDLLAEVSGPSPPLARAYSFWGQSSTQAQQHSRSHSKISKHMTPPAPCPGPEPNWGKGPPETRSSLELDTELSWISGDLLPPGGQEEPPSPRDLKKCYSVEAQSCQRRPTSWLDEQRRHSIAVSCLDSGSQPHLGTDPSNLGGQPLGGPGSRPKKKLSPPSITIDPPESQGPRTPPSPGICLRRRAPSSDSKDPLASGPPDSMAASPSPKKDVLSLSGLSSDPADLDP
Method in brief: (§1)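 Resting block was measured mainly with the non-inactivated protocol: holding potential −110 mV, 1 s step to −100 mV, then a 50 ms test pulse at −40 mV. Recordings used stably transfected human α1G or α1H HEK293 lines, with compounds perfused in external solution containing 0.1-0.01% DMSO. IC50 values (μM) above 10 μM are reported as 10 μM.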

[2] = target: T2, human α1H T-type channels (Homo sapiens, UniProt O95180); assay: T-type calcium channel block, whole cell patch clamp (α1H); assay type: cell-based; conditions: HEK cells stably expressing human α1H; mainly non-inactivated protocol; values above 10 μM represented as 10 μM
T2 construct: expressed in transfected cells; host or cells: HEK 293
T2 sequence (O95180 whole entry): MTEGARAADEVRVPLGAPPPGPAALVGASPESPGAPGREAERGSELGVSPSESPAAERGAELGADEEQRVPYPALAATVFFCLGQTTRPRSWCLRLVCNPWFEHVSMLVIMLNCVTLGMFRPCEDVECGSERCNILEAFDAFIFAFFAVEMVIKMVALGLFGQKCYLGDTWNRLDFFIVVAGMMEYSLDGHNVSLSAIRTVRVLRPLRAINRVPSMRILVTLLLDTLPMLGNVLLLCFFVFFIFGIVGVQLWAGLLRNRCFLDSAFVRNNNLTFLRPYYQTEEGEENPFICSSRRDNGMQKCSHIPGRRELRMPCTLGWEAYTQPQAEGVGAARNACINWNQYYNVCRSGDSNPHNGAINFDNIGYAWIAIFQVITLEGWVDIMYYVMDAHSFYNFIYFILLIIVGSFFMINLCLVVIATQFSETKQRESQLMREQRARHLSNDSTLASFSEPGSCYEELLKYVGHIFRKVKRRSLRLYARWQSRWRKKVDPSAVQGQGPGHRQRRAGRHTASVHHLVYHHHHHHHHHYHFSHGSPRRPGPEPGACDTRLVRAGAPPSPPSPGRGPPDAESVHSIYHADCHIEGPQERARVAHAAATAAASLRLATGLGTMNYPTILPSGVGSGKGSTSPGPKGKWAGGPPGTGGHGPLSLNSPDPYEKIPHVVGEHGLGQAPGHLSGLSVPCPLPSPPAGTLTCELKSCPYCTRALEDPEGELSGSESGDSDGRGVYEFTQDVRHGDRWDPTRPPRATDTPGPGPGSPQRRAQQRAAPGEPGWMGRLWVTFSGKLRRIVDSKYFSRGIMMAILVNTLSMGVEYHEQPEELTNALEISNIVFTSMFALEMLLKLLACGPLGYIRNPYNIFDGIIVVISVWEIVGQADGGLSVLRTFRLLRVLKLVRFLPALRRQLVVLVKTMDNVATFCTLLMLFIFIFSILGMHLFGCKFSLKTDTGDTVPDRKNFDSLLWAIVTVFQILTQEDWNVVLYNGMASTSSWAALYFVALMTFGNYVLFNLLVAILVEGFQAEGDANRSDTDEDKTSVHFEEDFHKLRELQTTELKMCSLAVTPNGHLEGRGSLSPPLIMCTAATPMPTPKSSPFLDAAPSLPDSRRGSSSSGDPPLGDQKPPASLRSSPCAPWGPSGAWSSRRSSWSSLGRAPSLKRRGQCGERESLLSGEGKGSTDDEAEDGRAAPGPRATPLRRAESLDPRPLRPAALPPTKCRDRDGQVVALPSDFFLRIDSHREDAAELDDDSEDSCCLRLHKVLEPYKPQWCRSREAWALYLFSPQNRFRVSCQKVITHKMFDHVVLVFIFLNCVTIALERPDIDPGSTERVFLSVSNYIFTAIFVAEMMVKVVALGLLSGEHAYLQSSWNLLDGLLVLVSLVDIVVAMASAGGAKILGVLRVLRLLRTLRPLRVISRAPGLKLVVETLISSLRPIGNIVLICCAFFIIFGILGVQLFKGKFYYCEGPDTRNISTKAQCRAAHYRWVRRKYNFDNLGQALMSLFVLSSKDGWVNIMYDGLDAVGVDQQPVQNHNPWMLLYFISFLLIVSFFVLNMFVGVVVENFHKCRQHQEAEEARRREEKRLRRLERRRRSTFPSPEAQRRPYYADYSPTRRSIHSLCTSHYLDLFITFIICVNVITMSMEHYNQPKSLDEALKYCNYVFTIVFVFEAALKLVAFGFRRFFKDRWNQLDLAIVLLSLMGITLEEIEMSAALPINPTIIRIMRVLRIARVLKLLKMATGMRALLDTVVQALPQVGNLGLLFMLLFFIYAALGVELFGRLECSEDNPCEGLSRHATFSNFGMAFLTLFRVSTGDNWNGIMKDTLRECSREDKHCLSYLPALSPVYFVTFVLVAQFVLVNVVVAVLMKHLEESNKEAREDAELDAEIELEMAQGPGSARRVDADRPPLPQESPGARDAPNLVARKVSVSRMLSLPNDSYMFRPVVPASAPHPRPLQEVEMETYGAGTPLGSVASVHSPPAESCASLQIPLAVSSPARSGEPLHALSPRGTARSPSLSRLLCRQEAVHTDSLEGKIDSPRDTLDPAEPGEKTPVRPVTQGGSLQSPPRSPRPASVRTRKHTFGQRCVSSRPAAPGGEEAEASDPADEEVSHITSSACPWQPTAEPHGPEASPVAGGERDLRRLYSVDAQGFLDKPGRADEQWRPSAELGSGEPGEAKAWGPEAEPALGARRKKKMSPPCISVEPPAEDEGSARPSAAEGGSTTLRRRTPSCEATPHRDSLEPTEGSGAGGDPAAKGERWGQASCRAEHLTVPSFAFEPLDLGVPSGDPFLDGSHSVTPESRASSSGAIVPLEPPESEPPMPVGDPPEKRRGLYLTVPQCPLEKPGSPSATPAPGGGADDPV
Method in brief: as §1

| Structure (SMILES) | IC50 [1] | IC50 [2] |
| --- | --- | --- |
| O=C(CCC(F)(F)F)NCCN[C@H]1CC[C@H](CNC(=O)c2cc(C(F)(F)F)cc(C(F)(F)F)c2)CC1 [Compound 102, N-((trans-4-(2-(4,4,4-trifluorobutanamido)ethylamino)cyclohexyl)methyl)-3,5-bis(trifluoromethyl)benzamide] | 970 nM | 1810 nM |
| O=C(C[C@H]1CC[C@@H](NC(=O)[C@@H]2C[C@@H](c3ccccc3)CN2)CC1)NCc1cccc(OC(F)(F)F)c1 [Compound 116, (2S,4S)-N-(cis-4-(2-oxo-2-(3-(trifluoromethoxy)benzylamino)ethyl)cyclohexyl)-4-phenylpyrrolidine-2-carboxamide] | 2890 nM | ≥ 10000 nM |
| NC1(C(=O)N[C@H]2CC[C@H](CC(=O)Nc3cc(C(F)(F)F)cc(C(F)(F)F)c3)CC2)CCCCC1 [Compound 117, 1-amino-N-(trans-4-(2-(3,5-bis(trifluoromethyl)phenylamino)-2-oxoethyl)cyclohexyl)cyclohexanecarboxamide] | 1070 nM | ≥ 10000 nM |
| O=C(C[C@H]1CC[C@H](NC(=O)C2(c3ccccc3)CCNCC2)CC1)Nc1cc(C(F)(F)F)cc(C(F)(F)F)c1 [Compound 121, (S)-N-(trans-4-(2-(3,5-bis(trifluoromethyl)phenylamino)-2-oxoethyl)cyclohexyl)-4-phenylpiperidine-4-carboxamide] | 610 nM | ≥ 10000 nM |
| O=C(NC[C@H]1CC[C@@H](NC(=O)[C@@H]2CC[C@H](c3ccccc3)N2)CC1)c1cc(C(F)(F)F)cc(C(F)(F)F)c1 [Compound 127, (2S,5R)-N-(cis-4-((3,5-bis(trifluoromethyl)benzamido)methyl)cyclohexyl)-5-phenylpyrrolidine-2-carboxamide] | 1100 nM | 4930 nM |
| Cc1ccc(-c2csc(NC(=O)C[C@H]3CC[C@@H](NC(=O)C4(c5ccccc5)CCNCC4)CC3)n2)cc1 [Compound 132, N-(cis-4-(2-oxo-2-(4-p-tolylthiazol-2-ylamino)ethyl)cyclohexyl)-4-phenylpiperidine-4-carboxamide] | 1090 nM | ≥ 10000 nM |
| O=C(NC[C@H]1CC[C@H](NC(=O)[C@@H]2CC[C@H](c3ccccc3)N2)CC1)c1cc(C(F)(F)F)cc(C(F)(F)F)c1 [Compound 135, (2S,5R)-N-(trans-4-((3,5-bis(trifluoromethyl)benzamido)methyl)cyclohexyl)-5-phenylpyrrolidine-2-carboxamide] | 1110 nM | 5650 nM |
| O=C(NC[C@H]1CC[C@@H](NC(=O)[C@H]2CC[C@@H](c3ccccc3)N2)CC1)c1cc(C(F)(F)F)cc(C(F)(F)F)c1 [Compound 139, (2R,5S)-N-(cis-4-((3,5-bis(trifluoromethyl)benzamido)methyl)cyclohexyl)-5-phenylpyrrolidine-2-carboxamide] | 1070 nM | 7060 nM |
| O=C(C[C@H]1CC[C@@H](NC(=O)[C@@H]2CCCN2)CC1)Nc1cc(C(F)(F)F)cc(C(F)(F)F)c1 [Compound 143, (S)-N-(cis-4-(2-(3,5-bis(trifluoromethyl)phenylamino)-2-oxoethyl)cyclohexyl)pyrrolidine-2-carboxamide] | 1900 nM | 9940 nM |
| O=C(C[C@H]1CC[C@@H](NC(=O)[C@H]2CCCN2)CC1)Nc1cc(C(F)(F)F)cc(C(F)(F)F)c1 [Compound 146, (R)-N-(cis-4-(2-(3,5-bis(trifluoromethyl)phenylamino)-2-oxoethyl)cyclohexyl)pyrrolidine-2-carboxamide] | 2790 nM | 7870 nM |
| CC(C)(C)C1CN([C@H]2CC[C@H](CNC(=O)c3cc(C(F)(F)F)cc(C(F)(F)F)c3)CC2)C(=O)O1 (stereo partly drawn) [Compound 153, N-((trans-4-(5-tert-butyl-2-oxooxazolidin-3-yl)cyclohexyl)methyl)-3,5-bis(trifluoromethyl)benzamide] | 1180 nM | 4010 nM |

The next lines start with the values.

| IC50 [1] | IC50 [2] | Structure (SMILES) |
| --- | --- | --- |
| 650 nM | 6070 nM | CC(C)(C)OC(=O)N[C@H]1CC[C@@H](CC(=O)Nc2cc(C(F)(F)F)cc(C(F)(F)F)c2)CC1 [Compound 105, tert-butyl cis-4-(2-(3,5-bis(trifluoromethyl)phenylamino)-2-oxoethyl)cyclohexylcarbamate] |
| 880 nM | 1530 nM | O=C(C[C@H]1CC[C@H](NC(=O)[C@@H]2CCCN2)CC1)Nc1cc(C(F)(F)F)cc(C(F)(F)F)c1 [Compound 119, (S)-N-(trans-4-(2-(3,5-bis(trifluoromethyl)phenylamino)-2-oxoethyl)cyclohexyl)pyrrolidine-2-carboxamide] |
| 840 nM | 3620 nM | N[C@H]1CCCC[C@H]1C(=O)N[C@H]1CC[C@H](CC(=O)Nc2cc(C(F)(F)F)cc(C(F)(F)F)c2)CC1 [Compound 122, (1R,2S)-2-amino-N-(trans-4-(2-(3,5-bis(trifluoromethyl)phenylamino)-2-oxoethyl)cyclohexyl)cyclohexanecarboxamide] |
| ≤ 300 nM | 2950 nM | O=C(C[C@H]1CC[C@H](NC(=O)[C@@H]2C[C@@H](c3ccccc3)CN2)CC1)Nc1cc(C(F)(F)F)cc(C(F)(F)F)c1 [Compound 123, (2S,4S)-N-(trans-4-(2-(3,5-bis(trifluoromethyl)phenylamino)-2-oxoethyl)cyclohexyl)-4-phenylpyrrolidine-2-carboxamide] |
| 830 nM | ≥ 10000 nM | NC1(C(=O)N[C@H]2CC[C@H](CC(=O)Nc3cc(C(F)(F)F)cc(C(F)(F)F)c3)CC2)CCCC1 [Compound 124, 1-amino-N-(trans-4-(2-(3,5-bis(trifluoromethyl)phenylamino)-2-oxoethyl)cyclohexyl)cyclopentanecarboxamide] |
| 940 nM | 2430 nM | O=C(NC[C@H]1CC[C@@H](NC(=O)[C@@H]2C[C@@H](c3ccccc3)CN2)CC1)c1cc(C(F)(F)F)cc(C(F)(F)F)c1 [Compound 125, (2S,4S)-N-(cis-4-((3,5-bis(trifluoromethyl)benzamido)methyl)cyclohexyl)-4-phenylpyrrolidine-2-carboxamide] |
| 700 nM | 7850 nM | O=C(NC[C@H]1CC[C@H](NC(=O)[C@H]2CC[C@@H](c3ccccc3)N2)CC1)c1cc(C(F)(F)F)cc(C(F)(F)F)c1 [Compound 137, (2R,5S)-N-(trans-4-((3,5-bis(trifluoromethyl)benzamido)methyl)cyclohexyl)-5-phenylpyrrolidine-2-carboxamide] |
| ≤ 300 nM | 524 nM | CC(C)(C)C(O)CN[C@H]1CC[C@@H](CC(=O)Nc2cc(C(F)(F)F)cc(C(F)(F)F)c2)CC1 (stereo partly drawn) [Compound 150, N-(3,5-bis(trifluoromethyl)phenyl)-2-(cis-4-(2-hydroxy-3,3-dimethylbutylamino)cyclohexyl)acetamide] |
| 480 nM | ≥ 10000 nM | Cc1ccc(-c2csc(NC(=O)C[C@H]3CC[C@H](NCC(O)(C(F)(F)F)C(F)(F)F)CC3)n2)cc1 [Compound 151, N-(4-p-tolylthiazol-2-yl)-2-(trans-4-(3,3,3-trifluoro-2-hydroxy-2-(trifluoromethyl)propylamino)cyclohexyl)acetamide] |
| ≤ 300 nM | ≥ 10000 nM | Cc1ccc(-c2csc(NC(=O)C[C@H]3CC[C@@H](NCC(O)(C(F)(F)F)C(F)(F)F)CC3)n2)cc1 [Compound 152, N-(4-p-tolylthiazol-2-yl)-2-(cis-4-(3,3,3-trifluoro-2-hydroxy-2-(trifluoromethyl)propylamino)cyclohexyl)acetamide] |
